Reference: patent US20120040965A1, “SUBSTITUTED AZEPINO[4,3-B]INDOLES, PHARMACOLOGICAL COMPOSITION AND A METHOD FOR THE PRODUCTION AND USE THEREOF” (priority 2006, published 2012)

Experiments:
[1] = tested on: male mice of C57BL/6 line; experiment: Test of familiar object recognition in a novel localization (spatial memory); assay type: in vivo; conditions: for % of time investigating the object in a novel localization / % of time investigating the object in familiar localization: testing 48 hr after training; for effect on memory: doses of 1 mg/kg and 5 mg/kg
Text: Testing of compounds of general formula 1 on spatial memory in test of novel object recognition. Test of novel object recognition is based on the fact that rats and mice investigate spontaneously a novel object or novel object localization (NL) for longer period of time than the known object or known object localization (KL). The test was tried on rats [A. Ennaceur and J. Delacour, A new one-trial test for neurobiological studies of memory in rats. 1: behavioral data. Behay. Brain Res. 1988, 31, 47-59; J. C. Dodart, C. Mathis and A. Ungerer, Scopolamine-induced deficits in a two-trial object recognition task in mice. NeuroReport 1997, 8, 1173-1178; C. Messier, Object recognition in mice: improvement of memory by glucose. Neurobiol. Learn. Mem. 1997, 67, 172-175; C. Pittenger, Y. Y. Huang, R. F. Paletzki, R. Bourtchouladze, H. Scanlin, S. Vronskaya et al., Reversible inhibition of CREB/ATF transcription factors in region CA1 of the dorsal hippocampus disrupts hippocampus-dependent spatial memory. Neuron 2002, 34, 447-462; A. E. Ryabinin, M. N. Miller and S. Durrant, Effects of acute alcohol administration on object recognition learning in C57BL/6J mice. Pharmacol. Biochem. Behay. 2002, 71, 307-312; F. Sargolini, P. Roullet, A. Oliverio and A. Mele, Effects of intra-accumbens focal administrations of glutamate antagonists on object recognition memory in mice. Behay. Brain Res. 2003, 138, 153-163].
Test of novel object recognition consists of two tests. The first one is novel object localization test use for examination of spatial memory, and the second one—test of novel object recognition for exploring non spatial memory [D. Gaffan, Amnesia for complex naturalistic scenes and for objects following formix transaction in the Rhesus monkey. Eur. J. Neurosci. 1992, 4, 381-388; B. Kolb, K. Buhrmann, R. McDonald and R. Sutherland, Dissociation of the medial prefrontal, posterior parietal, and posterior temporal cortex, for spatial navigation and recognition memory in the rat. Cereb. Cortex 1994, 6, 664-680; T. Steckler, W. H. I. M. Drinkenburgh, A. Sahgal and J. P. Aggleton, Recognition memory in rats. I. Concepts and classification. Prog. Neurobiol. 1998, 54, 289-311. T. Steckler, W. H. I. M. Drinkenburgh, A. Sahgal and J. P. Aggleton, Recognition memory in rats II. Neuroanatomical substrates. Prog. Neurobiol. 1998, 54, 313-332].
Methods of Investigation.
Subjects were male mice of 3-5 month age of C57BL/6 line, weighing 20-24 g. Animals were housed 5 per cage at light mode 12×12 hr with a light part from 8 till 20 o'clock with water and food available. Experimental setup was made of non-transparent white organic glass measuring 48×38×30 cm. As objects of recognition brown glass bottles measuring 2.7 cm diameter and 5.5 cm high were used. The cage and objects of recognition were wiped with 85% alcohol 2-3 min prior placing an animal in the cage. Animals were always placed in the cage centre. 40 Mg of compound of general formula 1 were dissolved in 0.2 ml of DMSO with the following addition of distilled water up to desired concentration. Solutions were prepared just before a trial. All experiments were carried out on two groups of 10 mice each. Animals were injected in dose 1 and 5 mg/kg in volume 0.05 ml on 10 g of animal weight one hour before the trial. The control animals were injected with an equal volume of distilled water.
Acquaintance with the behavioural cage. At the first test day mice were placed into a research chamber and allowed to acclimate for 20-30 min. After that each animal was placed for 10 minutes into an empty, previously treated with alcohol behavioural chamber for acclimation. Then the animal was placed into the cage and taken back to vivarium.
Training. Next day the same mice were placed into a behavioural chamber and allowed to explore for 20-30 min; after acclimation animals were injected intragastrically by the solution of tested compound. […]

[2] = tested on: male mice of C57BL/6 line; experiment: Acute toxicity in mice; assay type: in vivo; conditions: for animals' death: 100 mg/kg
Description: Research of acute toxicity. Acute toxicity of the proposed compounds was determined in male mice of C57BL/6 line. […] Observation time was 14 days.

[3] = dose 1 mg/kg intragastrically one hour before training
[4] = dose 5 mg/kg intragastrically one hour before training

With `Cc1ccc2c(c1)c1c(n2CCc2ccncc2)CCCN(C)C1.Cl.Cl` [1.1.5(3)HCl, 2,9-dimethyl-6-[2-(pyridin-4-yl)ethyl]-1,2,3,4,5,6-hexahydroazepino[4,3-b]indole dihydrochloride] the “% of time investigating the object in a novel localization” value [1, 3] was 55.5±6.2%, the “% of time investigating the object in familiar localization” value [1, 3] was 44.5±6.2% and the “% of time investigating the object in a novel localization” value [1, 4] was 59.9±5.9%. The “% of time investigating the object in familiar localization” value [1, 4] was 40.1±5.9%, the effect on memory [1] was “stimulating effect on memory” and the “animals' death” value ([2]; mouse, in vivo) was “do not cause animals' death”.

For `Cc1ccc2c(c1)c1c(n2CCc2ccc(C)nc2)CCCN(C)C1.Cl.Cl` [1.1.5(2)HCl, 2,9-dimethyl-6-[2-(6-methylpyridin-3-yl)ethyl]-1,2,3,4,5,6-hexahydroazepino[4,3-b]indole dihydrochloride], the “% of time investigating the object in a novel localization” value [1, 3] was 58.7±9.7%, the “% of time investigating the object in familiar localization” value [1, 3] was 41.3±9.7% and the “% of time investigating the object in a novel localization” value [1, 4] was 58.8±11.1%. For the same molecule, the “% of time investigating the object in familiar localization” value [1, 4] was 41.2±11.1%, the effect on memory [1] was “stimulating effect on memory” and the “animals' death” value ([2]; mouse, in vivo) was “do not cause animals' death”.

For `Cc1ccc2c(c1)[C@@H]1CN(C)CCC[C@H]1N2Cc1ccccn1.Cl.Cl` (relative stereo) [1.2.6(4)HCl, trans-2,9-dimethyl-6-[(pyridin-2-yl)methyl]-1,2,3,4,5,5a,6,10b-octahydroazepino[4,3-b]indole dihydrochloride], the “% of time investigating the object in a novel localization” value [1, 3] was 49.11±3.3%, the “% of time investigating the object in familiar localization” value [1, 3] was 41.3±9.7% and the “% of time investigating the object in a novel localization” value [1, 4] was 60.1±9.0%. The “% of time investigating the object in familiar localization” value [1, 4] was 39.9±9.0%, the effect on memory [1] was “stimulating effect on memory” and the “duration of sedative action” value ([2]; doses 100 and 50 mg/kg, mice) was greater than 24 h. For the same molecule, the “onset of sedative action after injection” value ([2]; doses 100 and 50 mg/kg, mice) was 5 to 10 min, the sedative action ([2]; doses 100 and 50 mg/kg, mice) was “pronounced sedative action” and the sedative action ([2]; doses of 1 and 5 mg/kg, mice) was “not observed”. The “animals' death” value ([2]; unitary introduction into stomach, 14 days of watching) was “do not cause animals' death”.
